Drawing on patent publication US20050095287A1, “Fosinopril composition” (priority 2003, published 2005), this text covers solubility for one molecule.

The series in a line: Solubility of the active drug (statement). The series is classed as physicochemical.

In the case of `CCC(=O)O[C@@H](O[P@](=O)(CCCCc1ccccc1)CC(=O)N1C[C@H](C2CCCCC2)C[C@H]1C(=O)O)C(C)C` [Fosinipril, Fosinopril], the solubility entry is listed as “highly soluble”.
